In US10519134B2, “Pyrazole compounds and methods of making and using same” (Lundbeck La Jolla Research Center, Inc., priority 2015, dated 2019):

Columns and labels:
MAGL [1] = target: T1, MAGL (Homo sapiens, UniProt Q99685); assay: In vitro competitive activity-based protein profiling (human), MAGL gel band; type: biochemical
T1 construct: Proteomes (human prefrontal cortex or cell membrane fractions); from tissue; host or cells: human prefrontal cortex (or cell membrane fractions)
T1 sequence (Q99685 1-303): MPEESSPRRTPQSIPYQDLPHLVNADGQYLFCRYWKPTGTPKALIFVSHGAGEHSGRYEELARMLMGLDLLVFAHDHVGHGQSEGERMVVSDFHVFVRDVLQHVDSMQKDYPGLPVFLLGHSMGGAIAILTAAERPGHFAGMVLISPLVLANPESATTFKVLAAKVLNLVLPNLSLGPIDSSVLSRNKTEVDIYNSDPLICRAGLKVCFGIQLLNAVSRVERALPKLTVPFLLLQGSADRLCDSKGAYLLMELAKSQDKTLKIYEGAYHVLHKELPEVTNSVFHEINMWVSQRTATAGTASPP
Outline: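 Human prefrontal cortex or cell membrane proteomes (1.0-2.0 mg/mL protein) preincubated with inhibitors 30 min at 37° C, then labelled with FP-Rh or JW912 probe 30 min at room temperature. Residual MAGL activity read as fluorescent gel-band intensity after SDS-PAGE.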

FAAH = target: T2, FAAH (Mus musculus, UniProt O08914); assay: In vitro competitive activity-based protein profiling (mouse), FAAH gel band; type: biochemical; conditions: for inhibition at 1 µM: read-out: FAAH % inh. 1 μM; for IC50: mouse
T2 construct: Proteomes (mouse brain membrane fraction or cell lysates); from tissue; host or cells: mouse brain membrane fraction (or cell lysates)
T2 sequence (O08914 1-579): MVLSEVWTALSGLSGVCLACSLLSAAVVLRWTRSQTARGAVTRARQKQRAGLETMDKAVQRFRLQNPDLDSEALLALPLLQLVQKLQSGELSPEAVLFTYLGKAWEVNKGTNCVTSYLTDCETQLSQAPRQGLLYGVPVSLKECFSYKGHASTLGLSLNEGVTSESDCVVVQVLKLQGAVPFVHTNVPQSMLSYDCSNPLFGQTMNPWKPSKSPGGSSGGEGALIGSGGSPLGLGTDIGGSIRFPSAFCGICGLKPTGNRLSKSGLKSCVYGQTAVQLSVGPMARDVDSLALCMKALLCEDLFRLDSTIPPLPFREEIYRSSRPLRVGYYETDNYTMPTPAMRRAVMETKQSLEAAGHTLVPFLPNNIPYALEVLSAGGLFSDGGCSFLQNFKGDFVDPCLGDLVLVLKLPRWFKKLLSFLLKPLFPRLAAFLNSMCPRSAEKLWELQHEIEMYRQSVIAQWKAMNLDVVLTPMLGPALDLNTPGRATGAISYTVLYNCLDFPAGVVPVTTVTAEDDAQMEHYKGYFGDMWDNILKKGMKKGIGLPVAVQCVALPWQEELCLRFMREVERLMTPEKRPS
Outline: (§1)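 Mouse brain membrane proteome or cell lysate (1.0 mg/mL total protein) was preincubated with varying inhibitor concentrations for 30 min at 37 °C, then labelled for 30 min at 37 °C with FP-Rh or HT-01 (50 μM stock in DMSO). Activity was read as fluorescent band intensity after SDS-PAGE.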

MAGL [2] = target: T3, MAGL (Mus musculus, UniProt O35678); assay: Mouse brain proteomes from inhibitor treated mice (oral gavage, sacrificed 4 h after administration); type: in vivo; conditions: read-out: MAGL % inh. 5 mg/kg
T3 construct: Proteomes (mouse brain membrane fraction or cell lysates); from tissue; host or cells: mouse brain membrane fraction (or cell lysates)
T3 sequence (O35678 1-303): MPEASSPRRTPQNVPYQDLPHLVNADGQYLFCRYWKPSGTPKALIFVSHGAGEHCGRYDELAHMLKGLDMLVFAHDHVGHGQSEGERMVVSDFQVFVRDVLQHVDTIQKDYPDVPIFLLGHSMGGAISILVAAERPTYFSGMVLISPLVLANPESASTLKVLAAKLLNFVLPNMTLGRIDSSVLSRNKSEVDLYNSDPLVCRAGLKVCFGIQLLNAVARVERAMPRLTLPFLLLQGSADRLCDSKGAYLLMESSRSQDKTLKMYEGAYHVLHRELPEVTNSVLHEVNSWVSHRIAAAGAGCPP
Outline: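 Wild-type C57Bl/6J mice got compound by oral gavage in polyethylene glycol vehicle. Brain proteomes were prepared 4 h after dosing and analyzed for serine hydrolase activity.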

MAGL [3] = target: T3, MAGL; assay: In vitro competitive activity-based protein profiling (mouse), MAGL gel band; type: biochemical; conditions: for inhibition at 1 µM: read-out: MAGL % inh. 1 μM; for IC50: mouse
Outline: as §1

Structure (SMILES) | IC50 (MAGL [1]) [nM] | inhibition at 1 µM (FAAH) [%] | inhibition at 5 mg/kg (MAGL [2]) [%] | inhibition at 1 µM (MAGL [3]) [%] | IC50 (FAAH) [nM] | IC50 (MAGL [3]) [nM]
CC1CCCN1c1cc(CN2CCN(C(=O)n3ccc(NS(C)(=O)=O)n3)CC2)ccc1Cl (stereo not drawn) [Example 200, N-(1-(4-(4-chloro-3-(2-methylpyrrolidin-1-yl)benzyl)piperazine-1-carbonyl)-1H-pyrazol-3-yl) methanesulfonamide] | ≤ 100 | 0 to 25 | ≥ 75 | ≥ 75 | – | –
CS(=O)(=O)Nc1ccn(C(=O)N2CCN(Cc3ccc(C(F)(F)F)cc3N3CCC(C(=O)O)CC3)CC2)n1 [Example 186, 1-(2-((4-(3-(methylsulfonamido)-1H-pyrazole-1-carbonyl)piperazin-1-yl)methyl)-5-(trifluoromethyl)phenyl)piperidine-4-carboxylic acid] | 100 to 1000 | 0 to 25 | 0 to 25 | ≥ 75 | 1000 to 10000 | 100 to 1000
CS(=O)(=O)Nc1ccn(C(=O)N2CCN(Cc3ccc(N4CCCC4)c(C(F)(F)F)c3)CC2)n1 [Example 152, N-(1-(4-(4-(pyrrolidin-1-yl)-3-(trifluoromethyl)benzyl)piperazine-1-carbonyl)-1H-pyrazol-3-yl) methanesulfonamide] | ≤ 100 | 0 to 25 | ≥ 75 | ≥ 75 | 1000 to 10000 | ≤ 100

Other lines, results leading:

IC50 (MAGL [1]) [nM] | inhibition at 1 µM (FAAH) [%] | inhibition at 5 mg/kg (MAGL [2]) [%] | inhibition at 1 µM (MAGL [3]) [%] | IC50 (FAAH) [nM] | IC50 (MAGL [3]) [nM] | Structure (SMILES)
≤ 100 | 0 to 25 | 25 to 50 | ≥ 75 | – | – | CS(=O)(=O)Nc1ccn(C(=O)N2CCN(Cc3ccc(Cl)c(-c4ccc(C(F)(F)F)nc4)c3)CC2)n1 [Example 233, N-(1-(4-(4-chloro-3-(6-(trifluoromethyl)pyridin-3-yl)benzyl)piperazine-1-carbonyl)-1H-pyrazol-3-yl) methanesulfonamide]
≤ 100 | 0 to 25 | 0 to 25 | ≥ 75 | – | – | CC(=O)N1CCC2(CC1)CCN(c1cc(C(F)(F)F)ccc1CN1CCN(C(=O)n3ccc(NS(C)(=O)=O)n3)CC1)C2 [Example 232, N-(1-(4-(2-(8-acetyl-2,8-diazaspiro[4.5]decan-2-yl)-4-(trifluoromethyl)benzyl)piperazine-1-carbonyl)-1H-pyrazol-3-yl) methanesulfonamide]
